One data set has as its system VSV-EBOV-GP. Kind of data set: microbe, parasite or virus in culture. The class given is cell-based, Ebola virus (EBOV/H.sap-tc/COD/76/Yambuku-Mayinga). The following applies: for inhibition at 0.2 µM: read-out: Inhibition% (200nM).
For a further data set, the system named is Vero cells. The following applies: for cytotoxicity: African green monkey.
The next data set has as its target EBOV-GP (Zaire ebolavirus, UniProt Q05320). Kind of data set: biochemical. The class given is binding, Zaire EBOV (strain Mayinga-76).
A short description of a further data set: in vitro. The following applies: African green monkey.
The next data set concerns VSV-G. The class given is cell-based, vesicular stomatitis virus.
A further data set concerns VSV-LASV-GP. The class given is cell-based, Lassa virus (LASV) (Josiah).

Read-outs that look alike come from different tables or passages of the source.

EBOV-GP, sequence (Q05320 33-650 limits assumed): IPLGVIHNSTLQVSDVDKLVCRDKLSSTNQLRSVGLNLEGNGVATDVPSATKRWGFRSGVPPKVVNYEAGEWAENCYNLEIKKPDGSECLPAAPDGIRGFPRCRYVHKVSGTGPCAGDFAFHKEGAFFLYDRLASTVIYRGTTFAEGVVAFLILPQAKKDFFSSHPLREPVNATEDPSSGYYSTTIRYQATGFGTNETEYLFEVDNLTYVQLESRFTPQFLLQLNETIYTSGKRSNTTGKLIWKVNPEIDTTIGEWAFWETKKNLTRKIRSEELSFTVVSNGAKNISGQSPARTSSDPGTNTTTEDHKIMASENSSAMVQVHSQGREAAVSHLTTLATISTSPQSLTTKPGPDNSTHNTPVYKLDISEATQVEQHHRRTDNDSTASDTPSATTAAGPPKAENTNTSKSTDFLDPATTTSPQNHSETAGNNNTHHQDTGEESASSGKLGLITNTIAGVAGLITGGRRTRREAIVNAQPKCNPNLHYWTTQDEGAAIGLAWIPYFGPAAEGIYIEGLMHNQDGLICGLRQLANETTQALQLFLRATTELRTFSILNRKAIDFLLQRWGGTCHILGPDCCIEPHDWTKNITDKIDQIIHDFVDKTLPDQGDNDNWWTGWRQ

In the case of `CC/C(=C(\c1ccccc1)c1ccc(OCCN(C)C)cc1)c1cccc(N=S(=O)(F)F)c1` [Compound 1], it took 380 nM to reach a half-maximal effect in the data set on VSV-EBOV-GP (Zaire ebolavirus, Vero, 16 h) (EC50). Besides, in the data set on Vero cells, the cytotoxicity result is reported as “did not exhibit cytotoxicity up to 10 µM”.
Regarding `CC/C(=C(\c1ccccc1)c1ccc(OCCN(C)C)cc1)c1cccc(NS(=O)(=O)NC2CCCOC2)c1` (centres unmarked) [Compound 2], in the data set on VSV-EBOV-GP (Zaire ebolavirus, Vero, 16 h), the concentration giving a half-maximal response (EC50) (usually the concentration that produces a half-maximal response) amounted to 470 nM.
On the same count and under the same terms, the value for `CC/C(=C(\c1ccccc1)c1ccc(OCCN(C)C)cc1)c1cccc(NS(=O)(=O)NCc2ncon2)c1` [Compound 3] was 550 nM.
For `CC/C(=C(\c1ccccc1)c1ccc(OCCN(C)C)cc1)c1cccc(NS(=O)(=O)N[C@@H]2CCOC2)c1` [Compound 4R], in the data set on VSV-EBOV-GP (Zaire ebolavirus, Vero), the EC50 was determined as 351 nM. The equilibrium dissociation constant (Kd) – broadly, the concentration at which binding is half-saturated – on EBOV-GP was found to be 6.4 µM. Also, in the data set with Vero cells, the “SI (Selectivity index = CC50/EC50)” value came to 43 and the cytotoxicity result is reported as “did not show significant cytotoxicity below 10 µM”. The same compound had a CC50 in the data set “in vitro” of 15 µM.
In turn, `CC/C(=C(\c1ccccc1)c1ccc(OCCN(C)C)cc1)c1cccc(NS(=O)(=O)N[C@H]2CCOC2)c1` [Compound 4S] showed an EC50 in the data set on VSV-EBOV-GP (Zaire ebolavirus, Vero) of 92 nM. In addition, at EBOV-GP, the Kd is 0.63 µM and the “affinity enhancement vs tamoxifen” value amounted to 50 fold. The “inhibition of VLPs displaying VSV-G” value in the data set with VSV-G was “selective inhibition of VSV-EBOV-GP but not VSV-G or VSV-LASV-GP”. The “inhibition of VSV-LASV-GP” value in the data set on VSV-LASV-GP is reported as “selective inhibition of VSV-EBOV-GP but not VSV-G or VSV-LASV-GP”. Besides, in the data set on Vero cells, the “SI (Selectivity index = CC50/EC50)” value stood at 150 and the cytotoxicity result is on record as “did not show significant cytotoxicity below 10 µM”. This compound also had a CC50 in “in vitro” of 14 µM.
With `CC/C(=C(\c1ccccc1)c1ccc(OCCN(C)C)cc1)c1cccc(NS(=O)(=O)NC2CCOC2)c1` (centres unmarked) [Compound 4], the EC50 in the data set with VSV-EBOV-GP amounted to 240 nM; with VSV-EBOV-GP (Zaire ebolavirus, Vero), 241 nM.
Consider `CC/C(=C(\c1ccccc1)c1ccc(OCCN(C)C)cc1)c1cccc(NS(=O)(=O)NC2COC2)c1` [Compound 5], for which it took 156 nM to reach a half-maximal effect in the data set with VSV-EBOV-GP (Zaire ebolavirus, Vero) (EC50). Also, the “SI (Selectivity index = CC50/EC50)” value in the data set on Vero cells is reported as 44. In addition, in “in vitro”, the CC50 turned out to be 6.8 µM.
The matching figures for `CC/C(=C(\c1ccccc1)c1ccc(OCCN(C)C)cc1)c1cccc(NS(=O)(=O)NC2COCC2C)c1` (centres unmarked) [Compound 6]: 201 nM, 70 and 14 µM.
On the same counts, the results for `CC/C(=C(\c1ccccc1)c1ccc(OCCN(C)C)cc1)c1cccc(NS(=O)(=O)NC2(C)CCOC2)c1` (centres unmarked) [Compound 7] are 268 nM, 31 and 8.4 µM.
On the same counts, the results for `CC/C(=C(\c1ccccc1)c1ccc(OCCN(C)C)cc1)c1cccc(NS(=O)(=O)NC2CCN(C)C2)c1` (centres unmarked) [Compound 8] are 145 nM, 14 and 2 µM.
In the data set with VSV-EBOV-GP (Zaire ebolavirus, Vero), `CC/C(=C(\c1ccccc1)c1ccc(OCCN(C)C)cc1)c1cccc(NS(=O)(=O)NC2CCN(C(C)C)C2)c1` (centres unmarked) [Compound 9] showed an EC50 of 790 nM. For the same compound, in the data set with Vero cells, the “SI (Selectivity index = CC50/EC50)” value came out at 4.3. The compound further yielded a CC50 in “in vitro” of 3.4 µM.
`CC/C(=C(\c1ccccc1)c1ccc(OCCN(C)C)cc1)c1cccc(NS(=O)(=O)N[C@H]2CCN(C)C2)c1` [Compound 10] returned a concentration giving a half-maximal response (EC50) with VSV-EBOV-GP (Zaire ebolavirus, Vero) of 664 nM. In addition, the “SI (Selectivity index = CC50/EC50)” value in the data set on Vero cells amounted to 4.5. In “in vitro”, this compound had a CC50 of 3 µM.
On the same counts, the results for `CC/C(=C(\c1ccccc1)c1ccc(OCCN(C)C)cc1)c1cccc(NS(=O)(=O)N[C@@H]2CCN(C)C2)c1` [Compound 11] are 575 nM, 6.3 and 3.6 µM.
Turning to `CC/C(=C(\c1ccccc1)c1ccc(OCCN(C)C)cc1)c1cccc(NS(=O)(=O)NC2CCN(CC)C2)c1` (centres unmarked) [Compound 12], the concentration for a half-maximal effect (EC50) in the data set on VSV-EBOV-GP (Zaire ebolavirus, Vero) turned out to be 841 nM. In the data set with Vero cells, the “SI (Selectivity index = CC50/EC50)” value is 4.8. In addition, the CC50 in “in vitro” was determined as 4 µM.
For the compound `CC/C(=C(\c1ccccc1)c1ccc(OCCN(C)C)cc1)c1cccc(NS(=O)(=O)N[C@H]2CCN(C(CC)CC)C2)c1` [Compound 13], the EC50 with VSV-EBOV-GP (Zaire ebolavirus, Vero) is 813 nM. Further, in the data set with Vero cells, the “SI (Selectivity index = CC50/EC50)” value worked out at 6.5. This compound gave a CC50 in the data set “in vitro” of 5.3 µM.
The matching figures for `CCCN1CCC(NS(=O)(=O)Nc2cccc(/C(CC)=C(/c3ccccc3)c3ccc(OCCN(C)C)cc3)c2)C1` (centres unmarked) [Compound 14]: 618 nM, 5.0 and 3.1 µM.
The matching figures for `CC/C(=C(\c1ccccc1)c1ccc(OCCN(C)C)cc1)c1cccc(NS(=O)(=O)NC2CCN(CCCO)C2)c1` (centres unmarked) [Compound 15]: 1720 nM, 4.5 and 7.7 µM.
For `CC/C(=C(\c1ccccc1)c1ccc(OCCN(C)C)cc1)c1ccc(NS(=O)(=O)NCc2ccn[nH]2)cc1` [Compound B02, CC/C(=C(\c1ccccc1)c1ccc(OCCN(C)C)cc1)c1ccc(NS(=O)(=O)NCc2ccn[nH]2)cc1], the inhibition (in general, the change of the read-out against control, counted positive when it falls) at 0.2 µM in the data set on VSV-EBOV-GP (Zaire ebolavirus, Vero) is 4.27%.
Still for that read-out and setting: the value for `CC/C(=C(\c1ccccc1)c1ccc(OCCN(C)C)cc1)c1ccc(N=S(=O)(F)N(C)Cc2ccn[nH]2)cc1` (centres unmarked) [Compound C02, CC/C(=C(\c1ccccc1)c1ccc(OCCN(C)C)cc1)c1ccc(N=S(=O)(F)N(C)Cc2ccn[nH]2)cc1] was 2.05%; that for `CC/C(=C(\c1ccccc1)c1ccc(OCCN(C)C)cc1)c1ccc(NS(=O)(=O)NCc2n[nH]c(=O)[nH]2)cc1` [Compound D02, CC/C(=C(\c1ccccc1)c1ccc(OCCN(C)C)cc1)c1ccc(NS(=O)(=O)NCc2n[nH]c(=O)[nH]2)cc1] was -0.485%; that for `CC/C(=C(\c1ccccc1)c1ccc(OCCN(C)C)cc1)c1ccc(N=S(=O)(F)N(C)Cc2n[nH]c(=O)[nH]2)cc1` (centres unmarked) [Compound E02, CC/C(=C(\c1ccccc1)c1ccc(OCCN(C)C)cc1)c1ccc(N=S(=O)(F)N(C)Cc2n[nH]c(=O)[nH]2)cc1] was 11%.
Still for that read-out and setting: with `CC/C(=C(\c1ccccc1)c1ccc(OCCN(C)C)cc1)c1ccc(NS(=O)(=O)NC(C)c2n[nH]c(=O)[nH]2)cc1` (centres unmarked) [Compound F02, CC/C(=C(\c1ccccc1)c1ccc(OCCN(C)C)cc1)c1ccc(NS(=O)(=O)NC(C)c2n[nH]c(=O)[nH]2)cc1] the figure was 14.1%.
`CC/C(=C(\c1ccccc1)c1ccc(OCCN(C)C)cc1)c1ccccc1` [Tamoxifen, tamoxifen, reference compound]: the “inhibition of VLPs displaying VSV-G” value in the data set on VSV-G was “selective inhibition of VSV-EBOV-GP but not VSV-G or VSV-LASV-GP”. Besides, in the data set on VSV-LASV-GP, the “inhibition of VSV-LASV-GP” value was “selective inhibition of VSV-EBOV-GP but not VSV-G or VSV-LASV-GP”.
